Assay results taken from PubChem BioAssay (NCI).
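Each compound was tested at five concentrations against cells in 96-well plates for 48 hours. At the TGI there is no net growth.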

tested on: NCI-H226 lung; test: NCI-60 cell line screen, 48 h

Row | Structure (SMILES) | TGI [µM]
1 | CC1=CC(=O)c2ccccc2C1=O | 31
2 | C[C@@H](c1ccccc1)N1CN(C(=O)OCc2ccccc2)C(C)(C)CC1=O | > 100
3 | CC(=O)Oc1ccc(-c2cc3ccccc3oc2=O)cc1 | > 100
4 | Clc1cc(Cl)cc(C=NC23CC4CC(CC(C4)C2)C3)c1 | > 10

tested on: NCI-H23 lung; test: NCI-60 cell line screen, 48 h

Row | Structure (SMILES) | TGI [µM]
5 | Nc1cccc(/C=C/C(=O)N2CCN(CCOC(c3ccccc3)c3ccccc3)CC2)c1 | 35.5
6 | CC1CC2OC(=O)C(C)C2CC2(C)C(OC3OC(CO)C(O)C(O)C3O)OCCC12 (stereo not given) | > 100
7 | CC1=CC(=O)c2ccccc2C1=O | 19.4
8 | O=C(/C=C/c1ccc(O)c(-c2cc(C(=O)/C=C/c3ccc(O)cc3)c(O)cc2O)c1)c1ccc(O)cc1O | > 50
9 | C[C@@H](c1ccccc1)N1CN(C(=O)OCc2ccccc2)C(C)(C)CC1=O | > 100
10 | CC(=O)Oc1ccc(-c2cc3ccccc3oc2=O)cc1 | > 100
11 | Clc1cc(Cl)cc(C=NC23CC4CC(CC(C4)C2)C3)c1 | > 10

tested on: NCI-H460 lung; test: NCI-60 cell line screen, 48 h

Row | Structure (SMILES) | TGI [µM]
12 | Nc1cccc(/C=C/C(=O)N2CCN(CCOC(c3ccccc3)c3ccccc3)CC2)c1 | 30.6
13 | CC1CC2OC(=O)C(C)C2CC2(C)C(OC3OC(CO)C(O)C(O)C3O)OCCC12 (stereo not given) | > 100
14 | CC1=CC(=O)c2ccccc2C1=O | 24.5
15 | O=C(/C=C/c1ccc(O)c(-c2cc(C(=O)/C=C/c3ccc(O)cc3)c(O)cc2O)c1)c1ccc(O)cc1O | > 50
16 | C[C@@H](c1ccccc1)N1CN(C(=O)OCc2ccccc2)C(C)(C)CC1=O | > 100
17 | CC(=O)Oc1ccc(-c2cc3ccccc3oc2=O)cc1 | > 100
18 | Clc1cc(Cl)cc(C=NC23CC4CC(CC(C4)C2)C3)c1 | > 10

tested on: NCI-H522 lung; test: NCI-60 cell line screen, 48 h

Row | Structure (SMILES) | TGI [µM]
19 | Nc1cccc(/C=C/C(=O)N2CCN(CCOC(c3ccccc3)c3ccccc3)CC2)c1 | 28.7
20 | CC1CC2OC(=O)C(C)C2CC2(C)C(OC3OC(CO)C(O)C(O)C3O)OCCC12 (stereo not given) | > 100
21 | CC1=CC(=O)c2ccccc2C1=O | 11.7
22 | O=C(/C=C/c1ccc(O)c(-c2cc(C(=O)/C=C/c3ccc(O)cc3)c(O)cc2O)c1)c1ccc(O)cc1O | > 50
23 | C[C@@H](c1ccccc1)N1CN(C(=O)OCc2ccccc2)C(C)(C)CC1=O | > 100
24 | CC(=O)Oc1ccc(-c2cc3ccccc3oc2=O)cc1 | > 100
25 | Clc1cc(Cl)cc(C=NC23CC4CC(CC(C4)C2)C3)c1 | > 10

tested on: NCI/ADR-RES ovarian; test: NCI-60 cell line screen, 48 h

Row | Structure (SMILES) | TGI [µM]
26 | Nc1cccc(/C=C/C(=O)N2CCN(CCOC(c3ccccc3)c3ccccc3)CC2)c1 | 37.3
27 | CC1CC2OC(=O)C(C)C2CC2(C)C(OC3OC(CO)C(O)C(O)C3O)OCCC12 (stereo not given) | > 100
28 | CC1=CC(=O)c2ccccc2C1=O | 30.2
29 | O=C(/C=C/c1ccc(O)c(-c2cc(C(=O)/C=C/c3ccc(O)cc3)c(O)cc2O)c1)c1ccc(O)cc1O | > 50
30 | C[C@@H](c1ccccc1)N1CN(C(=O)OCc2ccccc2)C(C)(C)CC1=O | > 100
31 | CC(=O)Oc1ccc(-c2cc3ccccc3oc2=O)cc1 | > 100
32 | Clc1cc(Cl)cc(C=NC23CC4CC(CC(C4)C2)C3)c1 | > 10

tested on: OVCAR-3 ovarian; test: NCI-60 cell line screen, 48 h

Row | Structure (SMILES) | TGI [µM]
33 | Nc1cccc(/C=C/C(=O)N2CCN(CCOC(c3ccccc3)c3ccccc3)CC2)c1 | 32
34 | CC1CC2OC(=O)C(C)C2CC2(C)C(OC3OC(CO)C(O)C(O)C3O)OCCC12 (stereo not given) | > 100
35 | CC1=CC(=O)c2ccccc2C1=O | 23.4
36 | O=C(/C=C/c1ccc(O)c(-c2cc(C(=O)/C=C/c3ccc(O)cc3)c(O)cc2O)c1)c1ccc(O)cc1O | 43.8
37 | C[C@@H](c1ccccc1)N1CN(C(=O)OCc2ccccc2)C(C)(C)CC1=O | > 100
38 | CC(=O)Oc1ccc(-c2cc3ccccc3oc2=O)cc1 | 70.9
39 | Clc1cc(Cl)cc(C=NC23CC4CC(CC(C4)C2)C3)c1 | > 10

tested on: OVCAR-4 ovarian; test: NCI-60 cell line screen, 48 h

Row | Structure (SMILES) | TGI [µM]
40 | Nc1cccc(/C=C/C(=O)N2CCN(CCOC(c3ccccc3)c3ccccc3)CC2)c1 | 26.1
41 | CC1CC2OC(=O)C(C)C2CC2(C)C(OC3OC(CO)C(O)C(O)C3O)OCCC12 (stereo not given) | > 100
42 | CC1=CC(=O)c2ccccc2C1=O | 9.54
43 | O=C(/C=C/c1ccc(O)c(-c2cc(C(=O)/C=C/c3ccc(O)cc3)c(O)cc2O)c1)c1ccc(O)cc1O | > 50
44 | C[C@@H](c1ccccc1)N1CN(C(=O)OCc2ccccc2)C(C)(C)CC1=O | > 100
45 | CC(=O)Oc1ccc(-c2cc3ccccc3oc2=O)cc1 | > 100
46 | Clc1cc(Cl)cc(C=NC23CC4CC(CC(C4)C2)C3)c1 | > 10

tested on: OVCAR-5 ovarian; test: NCI-60 cell line screen, 48 h

Row | Structure (SMILES) | TGI [µM]
47 | Nc1cccc(/C=C/C(=O)N2CCN(CCOC(c3ccccc3)c3ccccc3)CC2)c1 | 34.6
48 | CC1CC2OC(=O)C(C)C2CC2(C)C(OC3OC(CO)C(O)C(O)C3O)OCCC12 (stereo not given) | > 100
49 | CC1=CC(=O)c2ccccc2C1=O | 26.7
50 | O=C(/C=C/c1ccc(O)c(-c2cc(C(=O)/C=C/c3ccc(O)cc3)c(O)cc2O)c1)c1ccc(O)cc1O | > 50
51 | C[C@@H](c1ccccc1)N1CN(C(=O)OCc2ccccc2)C(C)(C)CC1=O | > 100
52 | CC(=O)Oc1ccc(-c2cc3ccccc3oc2=O)cc1 | > 100
53 | Clc1cc(Cl)cc(C=NC23CC4CC(CC(C4)C2)C3)c1 | > 10

tested on: OVCAR-8 ovarian; test: NCI-60 cell line screen, 48 h

Row | Structure (SMILES) | TGI [µM]
54 | Nc1cccc(/C=C/C(=O)N2CCN(CCOC(c3ccccc3)c3ccccc3)CC2)c1 | 35.6
55 | CC1CC2OC(=O)C(C)C2CC2(C)C(OC3OC(CO)C(O)C(O)C3O)OCCC12 (stereo not given) | > 100
56 | CC1=CC(=O)c2ccccc2C1=O | 22.7
57 | O=C(/C=C/c1ccc(O)c(-c2cc(C(=O)/C=C/c3ccc(O)cc3)c(O)cc2O)c1)c1ccc(O)cc1O | 24.7
58 | C[C@@H](c1ccccc1)N1CN(C(=O)OCc2ccccc2)C(C)(C)CC1=O | > 100
59 | CC(=O)Oc1ccc(-c2cc3ccccc3oc2=O)cc1 | > 100
60 | Clc1cc(Cl)cc(C=NC23CC4CC(CC(C4)C2)C3)c1 | > 10

tested on: PC-3 prostate; test: NCI-60 cell line screen, 48 h

Row | Structure (SMILES) | TGI [µM]
61 | Nc1cccc(/C=C/C(=O)N2CCN(CCOC(c3ccccc3)c3ccccc3)CC2)c1 | 28.9
62 | CC1CC2OC(=O)C(C)C2CC2(C)C(OC3OC(CO)C(O)C(O)C3O)OCCC12 (stereo not given) | > 100
63 | CC1=CC(=O)c2ccccc2C1=O | 16.4
64 | O=C(/C=C/c1ccc(O)c(-c2cc(C(=O)/C=C/c3ccc(O)cc3)c(O)cc2O)c1)c1ccc(O)cc1O | > 50
65 | C[C@@H](c1ccccc1)N1CN(C(=O)OCc2ccccc2)C(C)(C)CC1=O | > 100
66 | CC(=O)Oc1ccc(-c2cc3ccccc3oc2=O)cc1 | > 100
67 | Clc1cc(Cl)cc(C=NC23CC4CC(CC(C4)C2)C3)c1 | > 10

tested on: RPMI-8226 leukemia; test: NCI-60 cell line screen, 48 h

Row | Structure (SMILES) | TGI [µM]
68 | Nc1cccc(/C=C/C(=O)N2CCN(CCOC(c3ccccc3)c3ccccc3)CC2)c1 | 26.7
69 | CC1CC2OC(=O)C(C)C2CC2(C)C(OC3OC(CO)C(O)C(O)C3O)OCCC12 (stereo not given) | > 100
70 | CC1=CC(=O)c2ccccc2C1=O | 5.39
71 | O=C(/C=C/c1ccc(O)c(-c2cc(C(=O)/C=C/c3ccc(O)cc3)c(O)cc2O)c1)c1ccc(O)cc1O | > 50
72 | C[C@@H](c1ccccc1)N1CN(C(=O)OCc2ccccc2)C(C)(C)CC1=O | > 100
73 | CC(=O)Oc1ccc(-c2cc3ccccc3oc2=O)cc1 | > 100
74 | Clc1cc(Cl)cc(C=NC23CC4CC(CC(C4)C2)C3)c1 | > 10

tested on: RXF 393 renal; test: NCI-60 cell line screen, 48 h

Row | Structure (SMILES) | TGI [µM]
75 | Nc1cccc(/C=C/C(=O)N2CCN(CCOC(c3ccccc3)c3ccccc3)CC2)c1 | 28.7
76 | CC1CC2OC(=O)C(C)C2CC2(C)C(OC3OC(CO)C(O)C(O)C3O)OCCC12 (stereo not given) | > 100
77 | CC1=CC(=O)c2ccccc2C1=O | 26.9
78 | O=C(/C=C/c1ccc(O)c(-c2cc(C(=O)/C=C/c3ccc(O)cc3)c(O)cc2O)c1)c1ccc(O)cc1O | > 50
79 | C[C@@H](c1ccccc1)N1CN(C(=O)OCc2ccccc2)C(C)(C)CC1=O | 70.9
80 | Clc1cc(Cl)cc(C=NC23CC4CC(CC(C4)C2)C3)c1 | > 10

tested on: SF-268 CNS; test: NCI-60 cell line screen, 48 h

Row | Structure (SMILES) | TGI [µM]
81 | Nc1cccc(/C=C/C(=O)N2CCN(CCOC(c3ccccc3)c3ccccc3)CC2)c1 | 35
82 | CC1CC2OC(=O)C(C)C2CC2(C)C(OC3OC(CO)C(O)C(O)C3O)OCCC12 (stereo not given) | > 100
83 | CC1=CC(=O)c2ccccc2C1=O | 22.2
84 | O=C(/C=C/c1ccc(O)c(-c2cc(C(=O)/C=C/c3ccc(O)cc3)c(O)cc2O)c1)c1ccc(O)cc1O | > 50
85 | C[C@@H](c1ccccc1)N1CN(C(=O)OCc2ccccc2)C(C)(C)CC1=O | > 100
86 | CC(=O)Oc1ccc(-c2cc3ccccc3oc2=O)cc1 | > 100
87 | Clc1cc(Cl)cc(C=NC23CC4CC(CC(C4)C2)C3)c1 | > 10

tested on: SF-295 CNS; test: NCI-60 cell line screen, 48 h

Row | Structure (SMILES) | TGI [µM]
88 | Nc1cccc(/C=C/C(=O)N2CCN(CCOC(c3ccccc3)c3ccccc3)CC2)c1 | 32.1
89 | CC1CC2OC(=O)C(C)C2CC2(C)C(OC3OC(CO)C(O)C(O)C3O)OCCC12 (stereo not given) | > 100
90 | CC1=CC(=O)c2ccccc2C1=O | 30.3
91 | O=C(/C=C/c1ccc(O)c(-c2cc(C(=O)/C=C/c3ccc(O)cc3)c(O)cc2O)c1)c1ccc(O)cc1O | > 50
92 | C[C@@H](c1ccccc1)N1CN(C(=O)OCc2ccccc2)C(C)(C)CC1=O | > 100
93 | CC(=O)Oc1ccc(-c2cc3ccccc3oc2=O)cc1 | > 100
94 | Clc1cc(Cl)cc(C=NC23CC4CC(CC(C4)C2)C3)c1 | > 10

tested on: SF-539 CNS; test: NCI-60 cell line screen, 48 h

Row | Structure (SMILES) | TGI [µM]
95 | Nc1cccc(/C=C/C(=O)N2CCN(CCOC(c3ccccc3)c3ccccc3)CC2)c1 | 31
96 | CC1CC2OC(=O)C(C)C2CC2(C)C(OC3OC(CO)C(O)C(O)C3O)OCCC12 (stereo not given) | > 100
97 | CC1=CC(=O)c2ccccc2C1=O | 11.9
98 | O=C(/C=C/c1ccc(O)c(-c2cc(C(=O)/C=C/c3ccc(O)cc3)c(O)cc2O)c1)c1ccc(O)cc1O | 26.3
99 | C[C@@H](c1ccccc1)N1CN(C(=O)OCc2ccccc2)C(C)(C)CC1=O | > 100
100 | CC(=O)Oc1ccc(-c2cc3ccccc3oc2=O)cc1 | > 100
